PMC12040969, “Design, synthesis, in silico studies, and apoptotic antiproliferative activity of novel thiazole-2-acetamide derivatives as tubulin polymerization inhibitors” (Frontiers in Chemistry, 2025)

Legend:
tubulin = assay: Tubulin polymerization inhibition assay (Cytoskeleton kit);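 for all read-outs here: Cell-free tubulin polymerization read by fluorescent reporter enhancement over a 30 min reaction, with the compound-free kit control taken as 100% activity and inhibition relative to it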; conditions: for Tub %inh / Tub. enzyme inhibition assay %inhibition: 30 min; for Tub %inh: YB-EGY run; for Tub K.Activity: EC = 120, YB-EGY run; for IC50: read-out: Tubulin inhibition IC50 ± SEM, triplicate for each tested concentration; for Tub. enzyme inhibition assay %inhibition: codes 522-537 run; for Tub. enzyme inhibition assay K. Activity: control = 120, codes 522-537 run; for Tub. (IC50) IC50±SD: supplement raw data, lab codes
[1] = Cell viability assay (MTT), normal cells; format: cell-based; conditions: human, MCF-10A normal mammary gland epithelial cells, four-day incubation
Protocol: The impact of novel compounds 10a-o and 13a-e on cell viability was examined using the MCF-10A (human mammary gland epithelial) normal cell line. The MTT test was employed to assess the cell viability of the novel compounds after a four-day incubation with MCF-10A cells ([El-Sherief et al., 2019]; [Ramadan et al., 2020]).
The effects of compounds 10a-o and 13a-e on cell viability were assessed using the human mammary gland epithelial normal cell line (MCF-10A). The MTT assay assessed the cell viability of compounds 10a-o and 13a-e following a four-day incubation with MCF-10A cells ([El-Sherief et al., 2019]; [Ramadan et al., 2020]). Check Supplementary Appendix A for additional information.
4.2. Biological evaluation
4.2.1 Cell Viability assay (MTT assay)
MTT assay was performed to investigate the effect of the synthesized compounds on mammary epithelial cells (MCF-10A). The cells were propagated in medium consisting of Ham's F-12 medium/ Dulbecco's modified Eagle's medium (DMEM) (1:1) supplemented with 10% foetal calf serum, 2 mM glutamine, insulin (10 μg/mL), hydrocortisone (500 ng/mL) and epidermal growth factor (20 ng/mL). Trypsin ethylenediamine tetra acetic acid (EDTA) was used to passage the cells after every 2-3 days. 96-well flat-bottomed cell culture plates were used to seed the cells at a density of 10^4 cells mL-1. The medium was aspirated from all the wells of culture plates after 24 h followed by the addition of synthesized compounds (in 200 μL medium to yield a final concentration of 0.1% (v/v) dimethyl sulfoxide) into individual wells of the plates.
Four wells were designated to a single compound. The plates were allowed to incubate at 37°C for 96 h. Afterwards, the medium was aspirated and 3-[4,5-dimethylthiazol-2-yl]-2,5-diphenyltetrazolium bromide (MTT) (0.4 mg/mL) in medium was added to each well and subsequently incubated for 3 h. The medium was aspirated and 150 μL dimethyl sulfoxide (DMSO) was added to each well. The plates were vortexed followed by the measurement of absorbance at 540 nm on a microplate reader. The results were presented as inhibition (%) of proliferation in contrast to controls comprising 0.1%

Cc1nc(SCC(=O)Nc2nc(-c3ccccc3)cs2)sc1C(=O)/C=C/c1ccc(Cl)cc1 [Compound 10b, (E)-2-((5-(3-(4-chlorophenyl)acryloyl)-4-methylthiazol-2-yl)thio)-N-(4-phenylthiazol-2-yl)acetamide]
Tub %inh (tubulin; conc 0.1 (unit not given)): 5.79%
Tub K.Activity (tubulin; conc 0.1 (unit not given)): 113.05
Tub %inh (tubulin; conc 1 (unit not given)): 23.9%
Tub K.Activity (tubulin; conc 1 (unit not given)): 91.287
Tub %inh (tubulin; conc 10 (unit not given)): 41.4%
Tub K.Activity (tubulin; conc 10 (unit not given)): 70.334
Tub %inh (tubulin; conc 50 (unit not given)): 64.5%
Tub K.Activity (tubulin; conc 50 (unit not given)): 42.629
Tub %inh (tubulin; conc 100 (unit not given)): 88.7%
Tub K.Activity (tubulin; conc 100 (unit not given)): 13.577
IC50 (tubulin): 8.75 ± 0.27 µM
viability at 96 h, 50 µM [1]: 91%

Cc1nc(SCC(=O)Nc2nc(-c3ccccc3)cs2)sc1C(=O)/C=C/c1ccc(F)cc1 [Compound 10c, (E)-2-((5-(3-(4-fluorophenyl)acryloyl)-4-methylthiazol-2-yl)thio)-N-(4-phenylthiazol-2-yl)acetamide]
Tub %inh (tubulin; conc 0.1 (unit not given)): 4.47%
Tub K.Activity (tubulin; conc 0.1 (unit not given)): 114.64
Tub %inh (tubulin; conc 1 (unit not given)): 12.4%
Tub K.Activity (tubulin; conc 1 (unit not given)): 105.09
Tub %inh (tubulin; conc 10 (unit not given)): 25.6%
Tub K.Activity (tubulin; conc 10 (unit not given)): 89.245
Tub %inh (tubulin; conc 50 (unit not given)): 52.5%
Tub K.Activity (tubulin; conc 50 (unit not given)): 56.999
Tub %inh (tubulin; conc 100 (unit not given)): 83%
Tub K.Activity (tubulin; conc 100 (unit not given)): 20.424
IC50 (tubulin): 22.5 ± 0.69 µM
viability at 96 h, 50 µM [1]: 89%

COc1ccc(/C=C/C(=O)c2sc(SCC(=O)Nc3nc(-c4ccccc4)cs3)nc2C)cc1 [Compound 10e, (E)-2-((5-(3-(4-methoxyphenyl)acryloyl)-4-methylthiazol-2-yl)thio)-N-(4-phenylthiazol-2-yl)acetamide]
Tub. enzyme inhibition assay %inhibition (tubulin; conc 0.01 (unit not given)): 2.57%
Tub. enzyme inhibition assay K. Activity (tubulin; conc 0.01 (unit not given)): 116.92
Tub. enzyme inhibition assay %inhibition (tubulin; conc 0.1 (unit not given)): 9.6%
Tub. enzyme inhibition assay K. Activity (tubulin; conc 0.1 (unit not given)): 108.49
Tub. enzyme inhibition assay %inhibition (tubulin; conc 1 (unit not given)): 20.4%
Tub. enzyme inhibition assay K. Activity (tubulin; conc 1 (unit not given)): 95.5
Tub. enzyme inhibition assay %inhibition (tubulin; conc 10 (unit not given)): 46%
Tub. enzyme inhibition assay K. Activity (tubulin; conc 10 (unit not given)): 64.791
Tub. enzyme inhibition assay %inhibition (tubulin; conc 100 (unit not given)): 83.3%
Tub. enzyme inhibition assay K. Activity (tubulin; conc 100 (unit not given)): 19.996
IC50 (tubulin): 15.3 ± 0.49 µM
Tub. (IC50) IC50±SD (tubulin): 7.77 ± 0.25 µg/mL
viability at 96 h, 50 µM [1]: 92%

Cc1nc(SCC(=O)Nc2nc(-c3ccc(Cl)cc3)cs2)sc1C(=O)/C=C/c1ccc(Cl)cc1 [Compound 10g, (E)-2-((5-(3-(4-chlorophenyl)acryloyl)-4-methylthiazol-2-yl)thio)-N-(4-(4-chlorophenyl)thiazol-2-yl)acetamide]
Tub. enzyme inhibition assay %inhibition (tubulin; conc 0.01 (unit not given)): 0.65%
Tub. enzyme inhibition assay K. Activity (tubulin; conc 0.01 (unit not given)): 119.22
Tub. enzyme inhibition assay %inhibition (tubulin; conc 0.1 (unit not given)): 5.24%
Tub. enzyme inhibition assay K. Activity (tubulin; conc 0.1 (unit not given)): 113.71
Tub. enzyme inhibition assay %inhibition (tubulin; conc 1 (unit not given)): 15.3%
Tub. enzyme inhibition assay K. Activity (tubulin; conc 1 (unit not given)): 101.63
Tub. enzyme inhibition assay %inhibition (tubulin; conc 10 (unit not given)): 32.3%
Tub. enzyme inhibition assay K. Activity (tubulin; conc 10 (unit not given)): 81.206
Tub. enzyme inhibition assay %inhibition (tubulin; conc 100 (unit not given)): 70.5%
Tub. enzyme inhibition assay K. Activity (tubulin; conc 100 (unit not given)): 35.432
IC50 (tubulin): 59.4 ± 3.78 µM
Tub. (IC50) IC50±SD (tubulin): 32.45 ± 2.07 µg/mL
viability at 96 h, 50 µM [1]: 89%

Cc1ccc(/C=C/C(=O)c2sc(SCC(=O)Nc3nc(-c4ccc(Cl)cc4)cs3)nc2C)cc1 [Compound 10i, (E)-N-(4-(4-chlorophenyl)thiazol-2-yl)-2-((4-methyl-5-(3-(p-tolyl)acryloyl)thiazol-2-yl)thio)acetamide]
Tub. enzyme inhibition assay %inhibition (tubulin; conc 0.01 (unit not given)): 1.51%
Tub. enzyme inhibition assay K. Activity (tubulin; conc 0.01 (unit not given)): 118.18
Tub. enzyme inhibition assay %inhibition (tubulin; conc 0.1 (unit not given)): 5.52%
Tub. enzyme inhibition assay K. Activity (tubulin; conc 0.1 (unit not given)): 113.37
Tub. enzyme inhibition assay %inhibition (tubulin; conc 1 (unit not given)): 19.3%
Tub. enzyme inhibition assay K. Activity (tubulin; conc 1 (unit not given)): 96.892
Tub. enzyme inhibition assay %inhibition (tubulin; conc 10 (unit not given)): 41.3%
Tub. enzyme inhibition assay K. Activity (tubulin; conc 10 (unit not given)): 70.409
Tub. enzyme inhibition assay %inhibition (tubulin; conc 100 (unit not given)): 72.1%
Tub. enzyme inhibition assay K. Activity (tubulin; conc 100 (unit not given)): 33.442
IC50 (tubulin): 33.5 ± 1.21 µM
Tub. (IC50) IC50±SD (tubulin): 17.63 ± 0.64 µg/mL
viability at 96 h, 50 µM [1]: 91%

COc1ccc(/C=C/C(=O)c2sc(SCC(=O)Nc3nc(-c4ccc(Cl)cc4)cs3)nc2C)cc1 [Compound 10j, (E)-N-(4-(4-chlorophenyl)thiazol-2-yl)-2-((5-(3-(4-methoxyphenyl)acryloyl)-4-methylthiazol-2-yl)thio)acetamide]
Tub. enzyme inhibition assay %inhibition (tubulin; conc 0.01 (unit not given)): 2.01%
Tub. enzyme inhibition assay K. Activity (tubulin; conc 0.01 (unit not given)): 117.59
Tub. enzyme inhibition assay %inhibition (tubulin; conc 0.1 (unit not given)): 7.08%
Tub. enzyme inhibition assay K. Activity (tubulin; conc 0.1 (unit not given)): 111.51
Tub. enzyme inhibition assay %inhibition (tubulin; conc 1 (unit not given)): 22.6%
Tub. enzyme inhibition assay K. Activity (tubulin; conc 1 (unit not given)): 92.923
Tub. enzyme inhibition assay %inhibition (tubulin; conc 10 (unit not given)): 45.7%
Tub. enzyme inhibition assay K. Activity (tubulin; conc 10 (unit not given)): 65.175
Tub. enzyme inhibition assay %inhibition (tubulin; conc 100 (unit not given)): 75.5%
Tub. enzyme inhibition assay K. Activity (tubulin; conc 100 (unit not given)): 29.401
IC50 (tubulin): 20.6 ± 0.75 µM
Tub. (IC50) IC50±SD (tubulin): 11.14 ± 0.41 µg/mL
viability at 96 h, 50 µM [1]: 93%

Cc1ccc(-c2csc(NC(=O)CSc3nc(C)c(C(=O)/C=C/c4ccccc4)s3)n2)cc1 [Compound 10k, (E)-2-((5-cinnamoyl-4-methylthiazol-2-yl)thio)-N-(4-(p-tolyl)thiazol-2-yl)acetamide]
Tub. enzyme inhibition assay %inhibition (tubulin; conc 0.01 (unit not given)): 0.28%
Tub. enzyme inhibition assay K. Activity (tubulin; conc 0.01 (unit not given)): 119.66
Tub. enzyme inhibition assay %inhibition (tubulin; conc 0.1 (unit not given)): 5.09%
Tub. enzyme inhibition assay K. Activity (tubulin; conc 0.1 (unit not given)): 113.89
Tub. enzyme inhibition assay %inhibition (tubulin; conc 1 (unit not given)): 16.5%
Tub. enzyme inhibition assay K. Activity (tubulin; conc 1 (unit not given)): 100.23
Tub. enzyme inhibition assay %inhibition (tubulin; conc 10 (unit not given)): 36.5%
Tub. enzyme inhibition assay K. Activity (tubulin; conc 10 (unit not given)): 76.175
Tub. enzyme inhibition assay %inhibition (tubulin; conc 100 (unit not given)): 71.9%
Tub. enzyme inhibition assay K. Activity (tubulin; conc 100 (unit not given)): 33.707
IC50 (tubulin): 47.8 ± 1.74 µM
Tub. (IC50) IC50±SD (tubulin): 23.48 ± 0.86 µg/mL
viability at 96 h, 50 µM [1]: 90%
